Read-outs that look alike come from different tables or passages of the source.
Columns and labels:
NMDA = test: SafetyScreen44 binding assay NMDA; conditions: at 1 μM; antagonist radioligand
Text: (§1) This panel included 38 binding assays and six functional assays of well-established targets and pathways that lead to off-target adverse drug reactions.

human AChE [1] = target: T1, human AChE (Homo sapiens, UniProt P22303); type: biochemical
Lck kinase (h) = Lck kinase (h) (Homo sapiens, UniProt P06239); test: SafetyScreen44 enzyme assay Lck kinase (h); type: biochemical; conditions: read-out: % Inhibition of Control Values
Text: as §1

COX1(h) = COX1(h) (Homo sapiens, UniProt P23219); test: SafetyScreen44 enzyme assay COX1(h); type: biochemical; conditions: read-out: % Inhibition of Control Values
Text: as §1

kappa (h) (KOP) = kappa (h) (KOP) (Homo sapiens, UniProt P41145); test: SafetyScreen44 binding assay kappa (h) (KOP); conditions: agonist radioligand, read-out: % Inhibition of Specific Control Binding
Text: as §1

ETA (h) = ETA (h) (Homo sapiens, UniProt P25101); test: SafetyScreen44 binding assay ETA (h); conditions: agonist radioligand, read-out: % Inhibition of Specific Control Binding
Text: as §1

[2] = target: human butyrylcholinesterase (BuChE) (Homo sapiens, UniProt P06276); test: Human BuChE colorimetric activity kit assay; type: biochemical
Protocol: Reactions were performed in 384-well plates (781162, Greiner BioOne, GmbH, Kremsmunster, Austria) with 1% DMSO, according to the manufacturer's instructions with a few modifications. Compounds were incubated with enzyme for 30 minutes at room temperature before addition of substrate. Total volume of the reaction was 100 μL, we use 5 μL enzyme and kinetic reactions were performed at 30° C. for 60 minutes using a microplate reader sold under the tradename SPECTRAMAX™ iD5 (Molecular Devices, San Jose, California, United States of America) and an absorbance of 412 nm. Percent activity was calculated by calculating the slope of each reaction as stated above and comparing the positive control (PC) to sample (S): % Relative activity=SlopeS/SlopePCx100. We evaluated if assay reagents could interfere with the absorbance by adding compound or DMSO to a 150 μM solution of 5-thio-2-nitrobenzoic acid and measuring at […].

H2 (h) = H2 (h) (Homo sapiens, UniProt P25021); test: SafetyScreen44 binding assay H2 (h); conditions: antagonist radioligand, read-out: % Inhibition of Specific Control Binding
Text: as §1

MAO-A = MAO-A (Rattus norvegicus, UniProt P21396); test: SafetyScreen44 binding assay MAO-A; conditions: antagonist radioligand, read-out: % Inhibition of Specific Control Binding
Text: as §1

H1 (h) = H1 (h) (Homo sapiens, UniProt P35367); test: SafetyScreen44 binding assay H1 (h); conditions: antagonist radioligand, read-out: % Inhibition of Specific Control Binding
Text: as §1

delta (DOP) (h) = delta (DOP) (h) (Homo sapiens, UniProt P41143); test: SafetyScreen44 binding assay delta (DOP) (h); conditions: agonist radioligand, read-out: % Inhibition of Specific Control Binding
Text: as §1

PDE4D2 (h) = PDE4D2 (h) (Homo sapiens, UniProt Q08499); test: SafetyScreen44 enzyme assay PDE4D2 (h); type: biochemical; conditions: read-out: % Inhibition of Control Values
Text: as §1

hERG potassium channel = hERG potassium channel (Homo sapiens, UniProt Q12809); test: SafetyScreen44 binding assay Potassium Channel hERG (human)-[3H] Dofetilide; conditions: probe [3H] Dofetilide, read-out: % Inhibition of Specific Control Binding
Text: as §1

GR (h) = GR (h) (Homo sapiens, UniProt P04150); test: SafetyScreen44 binding assay GR (h); conditions: agonist radioligand, read-out: % Inhibition of Specific Control Binding
Text: as §1

5-HT1B (h) = 5-HT1B (h) (Homo sapiens, UniProt P28222); test: SafetyScreen44 binding assay 5-HT1B (h); conditions: antagonist radioligand, read-out: % Inhibition of Specific Control Binding
Text: as §1

PDE3A (h) = PDE3A (h) (Homo sapiens, UniProt Q14432); test: SafetyScreen44 enzyme assay PDE3A (h); type: biochemical; conditions: read-out: % Inhibition of Control Values
Text: as §1

5-HT transporter (h) = 5-HT transporter (h) (Homo sapiens, UniProt P31645); test: SafetyScreen44 binding assay 5-HT transporter (h); conditions: antagonist radioligand, read-out: % Inhibition of Specific Control Binding
Text: as §1

acetylcholinesterase (h) = acetylcholinesterase (h) (Homo sapiens, UniProt P22303); test: SafetyScreen44 enzyme assay acetylcholinesterase (h); type: biochemical; conditions: at 1 μM
Text: as §1

alpha 2A (h) = alpha 2A (h) (Homo sapiens, UniProt P08913); test: SafetyScreen44 binding assay alpha 2A (h); conditions: antagonist radioligand, read-out: % Inhibition of Specific Control Binding
Text: as §1

CCK1 (CCKA) (h) = CCK1 (CCKA) (h) (Homo sapiens, UniProt P32238); test: SafetyScreen44 binding assay CCK1 (CCKA) (h); conditions: agonist radioligand, read-out: % Inhibition of Specific Control Binding
Text: as §1

5-HT2B (h) = 5-HT2B (h) (Homo sapiens, UniProt P41595); test: SafetyScreen44 binding assay 5-HT2B (h); conditions: agonist radioligand, read-out: % Inhibition of Specific Control Binding
Text: as §1

KV channel = test: SafetyScreen44 binding assay KV channel; conditions: at 1 μM; antagonist radioligand
Text: as §1

D2S (h) = D2S (h) (Homo sapiens, UniProt P14416); test: SafetyScreen44 binding assay D2S (h); conditions: agonist radioligand, read-out: % Inhibition of Specific Control Binding
Text: as §1

5-HT3 (h) = 5-HT3 (h) (Homo sapiens, UniProt P46098); test: SafetyScreen44 binding assay 5-HT3 (h); conditions: antagonist radioligand, read-out: % Inhibition of Specific Control Binding
Text: as §1

BZD (central) = test: SafetyScreen44 binding assay BZD (central); conditions: at 1 μM; agonist radioligand
Text: as §1

[3] = test system: Ca2+ channel (L, dihydropyridine site); test: SafetyScreen44 binding assay Ca2+ channel (L, dihydropyridine site); conditions: at 1 μM; antagonist radioligand
Text: as §1

human AChE [4] = target: T1, human AChE; type: biochemical; remark: listed apart in the source
5-HT1A (h) = 5-HT1A (h) (Homo sapiens, UniProt P08908); test: SafetyScreen44 binding assay 5-HT1A (h); conditions: agonist radioligand, read-out: % Inhibition of Specific Control Binding
Text: as §1

dopamine transporter (h) = dopamine transporter (h) (Homo sapiens, UniProt Q01959); test: SafetyScreen44 binding assay dopamine transporter (h); conditions: antagonist radioligand, read-out: % Inhibition of Specific Control Binding
Text: as §1

[5] = target: eel acetylcholinesterase (AChE) (Electrophorus electricus, UniProt O42275); test: Eel AChE fluorescence assay (AMPLEX Red kit); type: biochemical
Protocol: Enzymatic reactions consisted of 50 μM acetylcholine, 200 μM AIVIPLEX™ Red reagent, 1 U/mL horseradish peroxidase, 0.1 U/mL choline oxidase and 0.096 U/mL acetylcholinesterase, with 30 1% DMSO. […] Control reactions lacking acetylcholinesterase but containing 5 μM H2O2 in presence of compounds were analyzed at the same wavelength to exclude compounds that display assay interference. Dose-response curves were performed in duplicate.

T1 sequence (P22303 32-614): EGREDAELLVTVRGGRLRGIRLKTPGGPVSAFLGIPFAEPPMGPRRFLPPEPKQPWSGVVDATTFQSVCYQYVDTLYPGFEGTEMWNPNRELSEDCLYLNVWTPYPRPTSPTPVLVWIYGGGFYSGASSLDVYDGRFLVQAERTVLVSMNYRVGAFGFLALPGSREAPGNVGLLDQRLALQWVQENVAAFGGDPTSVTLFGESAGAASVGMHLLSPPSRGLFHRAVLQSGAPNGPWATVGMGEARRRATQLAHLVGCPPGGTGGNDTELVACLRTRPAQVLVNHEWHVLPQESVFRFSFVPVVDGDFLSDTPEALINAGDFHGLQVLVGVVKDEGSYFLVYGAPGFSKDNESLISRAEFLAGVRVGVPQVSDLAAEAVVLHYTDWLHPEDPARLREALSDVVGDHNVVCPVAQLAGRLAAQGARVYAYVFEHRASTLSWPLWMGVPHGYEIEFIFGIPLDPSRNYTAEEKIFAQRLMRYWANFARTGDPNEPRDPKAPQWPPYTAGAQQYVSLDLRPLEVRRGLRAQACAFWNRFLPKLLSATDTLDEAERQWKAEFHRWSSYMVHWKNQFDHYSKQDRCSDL
Chain of eel acetylcholinesterase (AChE) (O42275 24-633): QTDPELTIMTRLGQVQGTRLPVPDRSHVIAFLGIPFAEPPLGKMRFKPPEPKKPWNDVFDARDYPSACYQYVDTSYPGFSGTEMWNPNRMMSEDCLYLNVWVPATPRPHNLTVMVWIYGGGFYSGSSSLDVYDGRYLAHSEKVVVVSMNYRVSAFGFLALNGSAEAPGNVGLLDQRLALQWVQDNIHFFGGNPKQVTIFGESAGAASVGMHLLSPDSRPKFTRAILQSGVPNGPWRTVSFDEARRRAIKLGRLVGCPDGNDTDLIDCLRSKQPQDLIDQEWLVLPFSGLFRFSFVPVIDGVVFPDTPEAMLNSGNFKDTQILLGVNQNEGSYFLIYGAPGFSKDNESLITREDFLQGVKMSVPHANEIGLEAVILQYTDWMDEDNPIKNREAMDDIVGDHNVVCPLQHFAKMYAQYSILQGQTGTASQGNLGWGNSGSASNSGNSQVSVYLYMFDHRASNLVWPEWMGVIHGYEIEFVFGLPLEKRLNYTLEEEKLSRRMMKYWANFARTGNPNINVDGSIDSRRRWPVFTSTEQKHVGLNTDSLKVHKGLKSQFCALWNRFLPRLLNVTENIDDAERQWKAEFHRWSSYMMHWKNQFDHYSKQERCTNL
Chain of human butyrylcholinesterase (BuChE) (P06276 29-602): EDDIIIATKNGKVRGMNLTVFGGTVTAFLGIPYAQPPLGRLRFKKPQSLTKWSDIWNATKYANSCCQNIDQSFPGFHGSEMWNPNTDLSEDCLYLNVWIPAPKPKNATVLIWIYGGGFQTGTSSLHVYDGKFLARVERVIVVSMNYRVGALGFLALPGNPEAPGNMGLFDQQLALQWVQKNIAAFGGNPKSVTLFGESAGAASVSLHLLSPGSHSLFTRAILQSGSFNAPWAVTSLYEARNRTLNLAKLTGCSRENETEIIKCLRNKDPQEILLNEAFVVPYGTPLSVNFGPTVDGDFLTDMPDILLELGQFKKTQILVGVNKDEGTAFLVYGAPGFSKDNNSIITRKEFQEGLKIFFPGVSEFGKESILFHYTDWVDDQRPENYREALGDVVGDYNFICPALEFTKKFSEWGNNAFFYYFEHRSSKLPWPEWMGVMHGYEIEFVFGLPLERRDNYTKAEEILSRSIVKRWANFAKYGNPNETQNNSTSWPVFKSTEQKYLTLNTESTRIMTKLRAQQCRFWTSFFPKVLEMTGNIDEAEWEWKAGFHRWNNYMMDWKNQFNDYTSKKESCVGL
Chain of COX1(h) (P23219 24-599): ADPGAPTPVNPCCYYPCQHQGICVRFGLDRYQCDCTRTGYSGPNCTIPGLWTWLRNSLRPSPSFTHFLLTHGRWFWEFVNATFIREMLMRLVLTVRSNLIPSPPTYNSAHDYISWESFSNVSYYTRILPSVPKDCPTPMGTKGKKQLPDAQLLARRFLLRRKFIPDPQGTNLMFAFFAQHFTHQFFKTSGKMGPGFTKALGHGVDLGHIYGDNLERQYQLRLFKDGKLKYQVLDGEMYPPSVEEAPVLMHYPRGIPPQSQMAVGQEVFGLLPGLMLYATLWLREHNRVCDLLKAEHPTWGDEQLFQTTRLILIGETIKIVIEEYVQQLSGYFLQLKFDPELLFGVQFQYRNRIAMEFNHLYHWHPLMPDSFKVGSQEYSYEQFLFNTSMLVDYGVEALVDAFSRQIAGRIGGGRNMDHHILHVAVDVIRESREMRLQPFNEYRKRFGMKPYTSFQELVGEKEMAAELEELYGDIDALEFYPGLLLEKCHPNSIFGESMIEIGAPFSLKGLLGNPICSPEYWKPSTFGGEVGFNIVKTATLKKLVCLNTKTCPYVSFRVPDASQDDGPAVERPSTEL
Chain of MAO-A (P21396 whole entry): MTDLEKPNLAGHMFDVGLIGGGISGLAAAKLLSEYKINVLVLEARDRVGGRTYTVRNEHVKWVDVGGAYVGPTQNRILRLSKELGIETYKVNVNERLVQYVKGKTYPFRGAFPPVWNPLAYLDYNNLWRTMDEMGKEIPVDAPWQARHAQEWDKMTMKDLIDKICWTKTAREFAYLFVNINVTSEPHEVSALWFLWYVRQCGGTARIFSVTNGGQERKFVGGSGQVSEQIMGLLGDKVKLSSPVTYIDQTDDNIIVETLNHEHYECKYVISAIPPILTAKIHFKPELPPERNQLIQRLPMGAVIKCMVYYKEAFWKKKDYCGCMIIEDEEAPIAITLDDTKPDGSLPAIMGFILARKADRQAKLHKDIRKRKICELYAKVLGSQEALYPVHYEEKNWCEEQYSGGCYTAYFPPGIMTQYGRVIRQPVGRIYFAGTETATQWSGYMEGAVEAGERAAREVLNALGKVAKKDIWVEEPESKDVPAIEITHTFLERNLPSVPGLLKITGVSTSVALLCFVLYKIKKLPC
Chain of 5-HT3 (h) (P46098 24-478): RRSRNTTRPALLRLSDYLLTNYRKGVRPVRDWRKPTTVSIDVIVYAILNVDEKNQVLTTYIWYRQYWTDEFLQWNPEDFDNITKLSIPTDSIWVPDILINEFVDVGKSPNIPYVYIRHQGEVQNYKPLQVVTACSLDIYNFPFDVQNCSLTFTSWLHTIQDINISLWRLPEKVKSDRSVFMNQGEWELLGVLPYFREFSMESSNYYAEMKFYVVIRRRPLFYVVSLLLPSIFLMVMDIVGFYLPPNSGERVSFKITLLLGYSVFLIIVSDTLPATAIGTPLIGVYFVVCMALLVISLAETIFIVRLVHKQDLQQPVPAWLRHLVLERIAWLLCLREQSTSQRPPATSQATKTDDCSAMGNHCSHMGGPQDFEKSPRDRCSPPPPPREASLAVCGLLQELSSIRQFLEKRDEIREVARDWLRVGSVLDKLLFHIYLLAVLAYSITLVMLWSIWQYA
Chain of H2 (h) (P25021 whole entry): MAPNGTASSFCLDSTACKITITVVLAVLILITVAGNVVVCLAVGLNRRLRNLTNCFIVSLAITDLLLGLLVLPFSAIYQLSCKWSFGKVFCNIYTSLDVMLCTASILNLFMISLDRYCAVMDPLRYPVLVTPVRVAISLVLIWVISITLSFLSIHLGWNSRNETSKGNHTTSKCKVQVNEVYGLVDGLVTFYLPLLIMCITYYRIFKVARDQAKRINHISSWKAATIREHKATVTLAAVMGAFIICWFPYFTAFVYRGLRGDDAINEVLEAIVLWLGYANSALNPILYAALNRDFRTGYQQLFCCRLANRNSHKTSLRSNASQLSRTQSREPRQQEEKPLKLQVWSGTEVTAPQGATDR
Chain of acetylcholinesterase (h) (P22303 32-614): as the sequence (P22303 32-614) above
Chain of Lck kinase (h) (P06239 whole entry): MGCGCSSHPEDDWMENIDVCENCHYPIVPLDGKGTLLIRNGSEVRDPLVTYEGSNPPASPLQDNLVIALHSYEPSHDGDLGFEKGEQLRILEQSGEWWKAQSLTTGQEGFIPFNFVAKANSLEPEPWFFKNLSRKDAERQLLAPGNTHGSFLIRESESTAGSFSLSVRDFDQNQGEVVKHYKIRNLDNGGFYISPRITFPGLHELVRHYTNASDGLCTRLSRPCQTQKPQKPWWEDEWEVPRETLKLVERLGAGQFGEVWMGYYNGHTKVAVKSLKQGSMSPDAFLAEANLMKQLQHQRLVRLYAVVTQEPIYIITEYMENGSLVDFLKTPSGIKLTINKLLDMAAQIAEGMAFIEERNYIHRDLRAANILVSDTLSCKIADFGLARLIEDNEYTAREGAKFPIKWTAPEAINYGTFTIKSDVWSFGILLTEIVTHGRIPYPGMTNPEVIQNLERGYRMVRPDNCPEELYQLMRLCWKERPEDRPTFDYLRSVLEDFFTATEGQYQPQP
Chain of kappa (h) (KOP) (P41145 whole entry): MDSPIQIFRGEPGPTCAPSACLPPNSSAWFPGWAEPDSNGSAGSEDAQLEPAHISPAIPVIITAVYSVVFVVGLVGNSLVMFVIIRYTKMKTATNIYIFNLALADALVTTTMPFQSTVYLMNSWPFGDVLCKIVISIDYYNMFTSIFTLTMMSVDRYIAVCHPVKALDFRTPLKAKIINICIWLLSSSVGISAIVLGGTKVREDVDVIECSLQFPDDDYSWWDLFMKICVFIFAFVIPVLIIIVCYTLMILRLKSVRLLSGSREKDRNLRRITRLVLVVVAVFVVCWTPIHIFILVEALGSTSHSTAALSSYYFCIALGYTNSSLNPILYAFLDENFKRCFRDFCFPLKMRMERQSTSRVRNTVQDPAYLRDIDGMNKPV
Chain of delta (DOP) (h) (P41143 whole entry): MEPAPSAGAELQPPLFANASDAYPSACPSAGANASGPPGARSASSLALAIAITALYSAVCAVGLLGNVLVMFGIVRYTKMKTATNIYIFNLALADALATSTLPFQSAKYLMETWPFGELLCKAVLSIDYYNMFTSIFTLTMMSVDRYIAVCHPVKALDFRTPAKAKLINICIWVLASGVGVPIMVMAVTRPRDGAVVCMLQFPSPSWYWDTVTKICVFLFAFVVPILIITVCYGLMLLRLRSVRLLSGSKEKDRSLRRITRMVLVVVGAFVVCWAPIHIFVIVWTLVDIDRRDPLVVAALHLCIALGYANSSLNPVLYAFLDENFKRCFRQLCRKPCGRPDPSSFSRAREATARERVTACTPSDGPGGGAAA

Which results are given for `CCN(CC)CCOc1ccc2c(c1)C(=O)c1cc(OCCN(CC)CC)ccc1-2` [tilorone]?
% Inhibition of Specific Control Binding (NMDA): −10%; Bottom of curve, Eurofins human AChE (human AChE [1]; % Inhibition of Control Values): −7; Top of curve, Eurofins human AChE (human AChE [1]; % Inhibition of Control Values): 99; IC50 (human AChE [1]; third-party photometric assay, read-out: IC50 against human AChE (Eurofins Discovery)): 56 nM; Hill slope, Eurofins human AChE curve (human AChE [1]; two-fold dilution from 5 μM): 1.0; inhibition at 1 µM (Lck kinase (h)): 13%; inhibition at 1 µM (COX1(h)): -17%; inhibition at 1 µM (kappa (h) (KOP)): 4%; inhibition at 1 µM (ETA (h)): 5%; IC50 [2]: > 50 nM; inhibition at 100 µM ([2]; at 100 μM, single point, read-out: inhibition of human BChE): 50%; inhibition at 1 µM (H2 (h)): -11%; inhibition at 1 µM (MAO-A): 3%; inhibition at 1 µM (H1 (h)): -6%; inhibition at 1 µM (delta (DOP) (h)): 0%; inhibition at 1 µM (PDE4D2 (h)): -15%; inhibition at 1 µM (hERG potassium channel): -4%; inhibition at 1 µM (GR (h)): -5%; inhibition at 1 µM (5-HT1B (h)): 21%; inhibition at 1 µM (PDE3A (h)): 2%; inhibition at 1 µM (5-HT transporter (h)): 44%; % Inhibition of Control Values (acetylcholinesterase (h)): 92%; inhibition at 1 µM (alpha 2A (h)): 0%; inhibition at 1 µM (CCK1 (CCKA) (h)): -5%; inhibition at 1 µM (5-HT2B (h)): -9%; % Inhibition of Specific Control Binding (KV channel): 0%; inhibition at 1 µM (D2S (h)): 1%; inhibition at 1 µM (5-HT3 (h)): 6%; % Inhibition of Specific Control Binding (BZD (central)): −9%; % Inhibition of Specific Control Binding [3]: 4%; IC50 (human AChE [4]; average of the colorimetric and Eurofins values, read-out: average IC50 for human AChE): 64.6 nM; IC50 (human AChE [4]; colorimetric kit, n=2, read-out: IC50 against human AChE (colorimetric assay)): 73.3 nM; Hill slope, human AChE colorimetric dose-response (human AChE [4]; two-fold 16-point dilution from 20 μM): 0.84; inhibition at 1 µM (5-HT1A (h)): 12%; inhibition at 1 µM (dopamine transporter (h)): -9%; IC50 ([5]; dose-response, 1% DMSO): 14.4 nM; inhibition at 20 µM ([5]; eel AChE activity, at 20 μM, read-out: Percentage inhibition): 103%; assay interference test versus enzyme-free H2O2 reaction ([5]; parallel dose-response with 5 μM H2O2): likely represent true inhibition of the enzyme; inhibition at 20 µM ([5]; read-out: inhibition of enzyme activity compared to DMSO control (screen)): ≥ 50%; Hill slope, eel AChE dose-response ([5]; sixteen-point serial dilution, four-parameter fit): 0.62

Source: patent publication US20230330045A1 (priority 2020, published 2023)
